The values below come from patent US10647718B2, “Compounds and use thereof in the expansion of hematopoietic stem cells and/or hematopoietic progenitor cells” (UNIVERSITÉ DE MONTRÉAL, priority 2014, dated 2020).

pEC50: −log10 of the molar value.

The assay has as its system CD34+CD45RA− cell. The assay can be described thus: Hematopoietic stem cell expansion assay (CD34+CD45RA− cell count versus DMSO vehicle cultures). Format: cell-based. Particulars: Homo sapiens, concentration that results in a 50% increase in CD34+CD45RA− cell count compared to vehicle cultures (DMSO), Table 1, pyridopyrrolopyrimidine series, read-out: Biological data EC50. Here is the method: As used herein, the term “EC50” is intended to mean the concentration that results in a 50% increase in CD34+CD45RA− cell count compared to vehicle cultures (DMSO).
Screening Assay: screening assays were conducted as described in the inventors' previous patent application, WO 2013/110198.
The following biological assays were used to assess the effect of the compounds of the invention on hematopoietic stem cell expansion The results are illustrated in FIGS. 1 to 6. Culture medium: The culture medium used consisted of serum-free medium supplemented with the following recombinant cytokines: interleukin-6, thrombopoietin, Flt-3 ligand, and stem cell factor, each at a final concentration of 100 ng/ml, in the presence of vehicle (DMSO), positive control (SR1), or compound of the invention or a combination of compounds. Cell Culture: CD34+ cell purity of initial harvests was higher than 90%, as determined by flow cytometry. The CD34+ CD45RA− subpopulation reached purity levels higher than 70%. Cells were plated at 40,000 cells/ml and incubated for 7 to 12-days at 37° C. in 5% CO2. For long term cultures, 200,000 CD34+cells/ml from mobilized PB were plated with serum free media supplemented with interleukin-6, thrombopoietin, Flt3 ligand, and stem cell factor, each at a final concentration of 100 ng/ml, in the presence of vehicle (DMSO), positive control, or a compound of the invention at 500 nM.

One may read the pEC50 as the negative decadic logarithm of the EC50, by convention in mol/L. Turning to `CCN(CC)CCN(CC)c1nc(Cc2ccccc2)nc2[nH]c3cc(C(=O)OC)cnc3c12` [Compound 16, methyl 2-benzyl-4-((2-(diethylamino)ethyl)(ethyl)amino)-9H-pyrido[2′,3′:4,5]pyrrolo[2,3-d]pyrimidine-7-carboxylate], the pEC50 was 6.30 to 6.60.
